Five molecules from PubChem BioAssay AID1259407 (Chemical Carcinogenesis Research Information System (CCRIS), 2018) can be followed below.

The source made the active and inactive calls. How the calls were made is not given here.

In the data set the test system is CCRIS mutagenicity, Ames/micronucleus/aberration tests. The data set is described as follows: CCRIS mutagenicity studies.
Where [1] appears, read: Test System: AMES SALMONELLA TYPHIMURIUM, Strain/Indicator: TA98, Metabolic Activation: NONE, Method: STANDARD PLATE.
The mark [2] stands for this setting: Test System: AMES SALMONELLA TYPHIMURIUM, Strain/Indicator: TA100, Metabolic Activation: NONE, Method: STANDARD PLATE.
Setting [3] is: Test System: MOUSE LYMPHOMA, Strain/Indicator: L5178Y (TK+/TK-), Metabolic Activation: NONE, Method: SUSPENSION/PLATE.

For the molecule `O.O.O.O=C([O-])COc1ccccc1.O=C([O-])COc1ccccc1.[Cu+2]`, the mutagenic call (Test System: AMES SALMONELLA TYPHIMURIUM, Strain/Indicator: TA97, Metabolic Activation: NONE, Method: PREINCUBATION) was “inactive; negative”; the mutagenic call (Test System: AMES SALMONELLA TYPHIMURIUM, Strain/Indicator: TA97, Metabolic Activation: RAT, LIVER, S-9, AROCLOR 1254, Method: PREINCUBATION) is “inactive; negative”; the mutagenic call (Test System: AMES SALMONELLA TYPHIMURIUM, Strain/Indicator: TA100, Metabolic Activation: NONE, Method: PREINCUBATION) is “inactive; negative”; the mutagenic call (Test System: AMES SALMONELLA TYPHIMURIUM, Strain/Indicator: TA100, Metabolic Activation: RAT, LIVER, S-9, AROCLOR 1254, Method: PREINCUBATION) was “inactive; negative”; the mutagenic call (Test System: AMES SALMONELLA TYPHIMURIUM, Strain/Indicator: TA102, Metabolic Activation: NONE, Method: PREINCUBATION) was “inactive; negative”; the mutagenic call (Test System: AMES SALMONELLA TYPHIMURIUM, Strain/Indicator: TA102, Metabolic Activation: RAT, LIVER, S-9, AROCLOR 1254, Method: PREINCUBATION) is “inactive; negative”.
Turning to `CCN(CC)CCNc1ccc(C)c2sc3ccccc3c(=O)c12`, the mutagenic call reads like this: under setting [1], “inactive; negative”; (Test System: AMES SALMONELLA TYPHIMURIUM, Strain/Indicator: TA98, Metabolic Activation: RAT, LIVER, S-9, AROCLOR 1254 OR PHENOBARBITOL, Method: STANDARD PLATE) “inactive; negative”; under setting [2], “inactive; negative”; (Test System: AMES SALMONELLA TYPHIMURIUM, Strain/Indicator: TA100, Metabolic Activation: RAT, LIVER, S-9, AROCLOR 1254 OR PHENOBARBITOL, Method: STANDARD PLATE) “inactive; negative”; (Test System: AMES SALMONELLA TYPHIMURIUM, Strain/Indicator: TA1535, Metabolic Activation: NONE, Method: STANDARD PLATE) “inactive; negative”; (Test System: AMES SALMONELLA TYPHIMURIUM, Strain/Indicator: TA1535, Metabolic Activation: RAT, LIVER, S-9, AROCLOR 1254 OR PHENOBARBITOL, Method: STANDARD PLATE) “active; positive”. Further, the mutagenic call reads like this: (Test System: AMES SALMONELLA TYPHIMURIUM, Strain/Indicator: TA1537, Metabolic Activation: NONE, Method: STANDARD PLATE) “active; positive”; (Test System: AMES SALMONELLA TYPHIMURIUM, Strain/Indicator: TA1537, Metabolic Activation: RAT, LIVER, S-9, AROCLOR 1254 OR PHENOBARBITOL, Method: STANDARD PLATE) “active; positive”; (Test System: AMES SALMONELLA TYPHIMURIUM, Strain/Indicator: TA1538, Metabolic Activation: NONE, Method: STANDARD PLATE) “inactive; negative”; (Test System: AMES SALMONELLA TYPHIMURIUM, Strain/Indicator: TA1538, Metabolic Activation: RAT, LIVER, S-9, AROCLOR 1254 OR PHENOBARBITOL, Method: STANDARD PLATE) “inactive; negative”; under setting [3], “active; positive”.
As for `Cc1cc(-c2ccc(N/N=C3\C=Cc4c(S(=O)(=O)O)cc(S(=O)(=O)O)c(N)c4C3=O)c(C)c2)ccc1N/N=C1\C=Cc2c(S(=O)(=O)O)cc(S(=O)(=O)O)c(N)c2C1=O`, the mutagenic call is “active; positive” (Test System: AMES SALMONELLA TYPHIMURIUM, Strain/Indicator: TA98, Metabolic Activation: HAMSTER, LIVER, S-9, Method: PREINCUBATION (PRIVAL METHOD)); “active; positive” (Test System: AMES SALMONELLA TYPHIMURIUM, Strain/Indicator: TA100, Metabolic Activation: HAMSTER, LIVER, S-9, Method: PREINCUBATION (PRIVAL METHOD)); “active; positive. reevaluation of results: equivocal” under setting [3]; “inactive; negative” (Test System: Mouse lymphoma, Strain/Indicator: L5178Y (tk+/tk-), Metabolic Activation: Rat, Liver, S-9, Aroclor 1254, Method: Suspension/plate).
For the molecule `COc1ccc(-c2nc(-c3ccc(C)cc3C)[nH]c2-c2ccc(OC)cc2)cc1`, the mutagenic call runs as follows: under setting [1], “active; positive”; (Test System: AMES SALMONELLA TYPHIMURIUM, Strain/Indicator: TA98, Metabolic Activation: RAT LIVER S-9, 3-METHYLCHOLANTHRENE, SODIUM PHENOBARBITAL, Method: STANDARD PLATE) “inactive; negative”; under setting [2], “active; positive”; (Test System: AMES SALMONELLA TYPHIMURIUM, Strain/Indicator: TA100, Metabolic Activation: RAT LIVER S-9, 3-METHYLCHOLANTHRENE, SODIUM PHENOBARBITAL, Method: STANDARD PLATE) “inactive; negative”.
On to `c1ccc2nc3ccccc3cc2c1`, for which the mutagenic call was “inactive; negative” (Test System: AMES SALMONELLA TYPHIMURIUM, Strain/Indicator: TA97, Metabolic Activation: NONE, Method: STANDARD PLATE); “inactive; negative” (Test System: AMES SALMONELLA TYPHIMURIUM, Strain/Indicator: TA97, Metabolic Activation: RAT, LIVER, S-9, AROCLOR 1254, Method: STANDARD PLATE); “inactive; negative” under setting [1]; “inactive; negative” (Test System: AMES SALMONELLA TYPHIMURIUM, Strain/Indicator: TA98, Metabolic Activation: RAT, LIVER, S-9, AROCLOR 1254, Method: STANDARD PLATE); “inactive; negative” under setting [2]; “inactive; negative” (Test System: AMES SALMONELLA TYPHIMURIUM, Strain/Indicator: TA100, Metabolic Activation: RAT, LIVER, S-9, AROCLOR 1254, Method: STANDARD PLATE). Besides, the mutagenic call by setting is: (Test System: AMES SALMONELLA TYPHIMURIUM, Strain/Indicator: TA1535, Metabolic Activation: NONE, Method: PREINCUBATION) “inactive; negative”; (Test System: AMES SALMONELLA TYPHIMURIUM, Strain/Indicator: TA1535, Metabolic Activation: RAT, LIVER, S-9, TETRACHLOROBIPHENYL, Method: PREINCUBATION) “inactive; negative”; (Test System: AMES SALMONELLA TYPHIMURIUM, Strain/Indicator: TA1537, Metabolic Activation: NONE, Method: PREINCUBATION) “inactive; negative”; (Test System: AMES SALMONELLA TYPHIMURIUM, Strain/Indicator: TA1537, Metabolic Activation: RAT, LIVER, S-9, TETRACHLOROBIPHENYL, Method: PREINCUBATION) “active; positive”; (Test System: AMES SALMONELLA TYPHIMURIUM, Strain/Indicator: TA1538, Metabolic Activation: NONE, Method: PREINCUBATION) “inactive; negative”; (Test System: AMES SALMONELLA TYPHIMURIUM, Strain/Indicator: TA1538, Metabolic Activation: RAT, LIVER, S-9, TETRACHLOROBIPHENYL, Method: PREINCUBATION) “inactive; negative”.
